In PubChem BioAssay AID2305 (GlaxoSmithKline (GSK), 2010):
pIC50: −log10 of the molar value.

test system: P. falciparum 3D7 growth, pLDH absorbance; assay: P. falciparum 3D7 growth inhibition, dose response, strain 3D7 (AID 2305)

Row | SMILES | pIC50
1 | CCN(C1CCCCC1)S(=O)(=O)c1ccc(OC)c(N2CCN(C(=O)C(Cl)(Cl)Cl)CC2)c1 | 6.20
2 | O=C(Nc1cccc(CN2CCN(Cc3ccc(O)cc3)CC2)c1)c1ccc(Cl)c(Cl)c1 | 6.60
3 | CN(C)CCOc1cc(NC(=O)c2ccc(-c3ccc(Cl)cc3Cl)cc2)ccc1-c1ccccc1 | 6.04
4 | Cc1nc(N)nc(N)c1-c1cccc(Cl)c1 | 5.93
5 | CC(C)(C)c1cc(Cn2ccnc2)cc(C(C)(C)C)c1O | 5.98
6 | CN(C(=O)c1nn(-c2ccccn2)c2nccc(-c3cccs3)c12)C1CCCCC1 | 5.91
7 | CC(=O)N(C)c1ccc(C(=O)Nc2cccc(-c3cccc(-c4nc5c(C)cccc5[nH]4)c3)c2)cc1 | 6.21
8 | CS(=O)(=O)c1cccc(-c2cnc(N)c3cc(-c4ccc(F)cc4)ccc23)c1 | 6.05
9 | O=S(=O)(Nc1cccc(CCN2CCC(N3CCCCC3)CC2)c1)c1cccc2cccnc12 | 6.07
10 | COc1ccc(NC(=O)c2ccc3cc4ccccc4cc3c2)cc1N1CCN(C)CC1 | 5.99
11 | COc1ccc(-c2ccc(NC(=O)c3cccc(C#N)c3)cc2)cc1CN1CCC(O)CC1 | 6.09
12 | O=C(Nc1cccc(CN2CCN(C(=O)c3cccc(Cl)c3)CC2)c1)c1cccs1 | 6.74
13 | COc1ccc2nccc([C@@H](O)CN3CCC(NC(=O)c4ccc(Cl)c([N+](=O)[O-])c4)CC3)c2c1 | 6.02
14 | O=C(/C=C/c1ccc(Cl)c(Cl)c1)NCCCCCN1CCCC(CNC(=O)/C=C/c2ccccc2)C1 (configuration not stated) | 6.10
15 | NC1=NC2(CCCCC2)N(OCCCCCCN2C(=O)c3ccccc3C2=O)C(N)=N1 | 6.06
16 | CC(CCc1ccccc1)NCC(O)c1cccc(C(F)(F)F)c1 (configuration not stated) | 6.15
17 | CC(=O)N(C)C1CCN(Cc2cccc(-c3ccc(-c4nc5ccc(F)cc5[nH]4)cc3)c2)C1 (configuration not stated) | 6.02
18 | O=C(Cc1ccsc1)NCC(c1ccccc1Cl)c1c[nH]c2ccccc12 (configuration not stated) | 6.02
19 | CC(C)(CNCCOc1ccc(Cl)cc1)c1nc(-c2ccc(Cl)c(O)c2)c(-c2ccnc(N)n2)[nH]1 | 6.08
20 | O=C(/C=C/c1ccc(Cl)c(Cl)c1)NCCCCCN1CCC(CCNC(=O)c2snnc2-c2ccccc2)CC1 | 6.09
21 | COc1cc2nc(NCCN3CCOCC3)n3nc(-c4ccccc4)nc3c2cc1OC | 6.66
22 | Cc1nnsc1C(=O)Nc1cccc(-c2csc(-c3nc4ccccc4[nH]3)c2)c1 | 6.46
23 | CC[C@H]1CN2CC[C@@H]1C[C@H]2[C@H](O)c1cc(N2CCSCC2)nc2ccc(OC)cc12 | 6.70
24 | O=C1CN(C(=O)CCC2CCCC2)C(c2ccc(F)cc2)c2cc(F)ccc2N1 (configuration not stated) | 6.77

Row | SMILES | pIC50
25 | O=C(NC1CC1)c1ccc(N2CCC(Cc3ccccc3)CC2)c([N+](=O)[O-])c1 | 6.21
26 | CC(C)c1ccc(Nc2nc(NCCc3cnc[nH]3)nc(NCc3ccccc3)n2)cc1 | 6.16
27 | Cc1ccc(-c2cccc3c(NC(=O)Nc4ccc5nccc(N6CCN(C)CC6)c5c4)cccc23)cn1 | 6.46
28 | O=C(NCC1Cc2cc(Oc3ccccc3)ccc2O1)c1ccc([N+](=O)[O-])o1 (configuration not stated) | 6.04
29 | CC(=O)Oc1cc(OCc2ccccc2)c(OC(C)=O)c(OCc2ccccc2)c1 | 6.39
30 | Cc1ccccc1OCC(O)CNC1CCC(NCC(O)COc2ccccc2C)CC1 (configuration not stated) | 5.92
31 | CCCN(C(=O)c1ccccc1C)c1nnc(-c2cccc(C)c2)s1 | 6.05
32 | O=C(O)C[C@H](NC(=O)[C@@H]1CCCN1C(=O)c1cccc(-c2ccc(Cl)c(Cl)c2)c1)C(=O)O | 6.07
33 | Fc1ccccc1-c1cc(Nc2ccncc2)nc(-c2cccnc2)n1 | 6.59
34 | COc1ccc(NC(=O)Nc2cccc(-c3cccc(-c4nc5ccc(F)cc5[nH]4)c3)c2)cc1 | 6.77
35 | Cc1cc(=O)oc2c1ccc1oc(C(O)c3ccc(Cl)cc3)c(C)c12 (configuration not stated) | 6.89
36 | c1ccc2nc(NCCCCCCCCNc3ccc4ccccc4n3)ccc2c1 | 6.57
37 | O=C(Cn1c(CCc2cccc(F)c2F)nc(=O)c2ccccc21)N(CCN1CCCC1)Cc1ccc(-c2ccc(C(F)(F)F)cc2)cc1 | 6.15
38 | O=C1Nc2cccc3c2C1(CCCN1CCC(c2c[nH]c4cc(C(F)(F)F)ccc24)CC1)CCC3 (configuration not stated) | 6.02
39 | COc1cc2c(cc1C(F)(F)F)N(C(=O)Nc1cc(OC(F)(F)F)cc(-c3cccnc3)c1)CC2 | 7.40
40 | Clc1ccc(Nc2nc(NCc3ccccc3)nc(N/N=C/c3ccccn3)n2)cc1 | 6.11
41 | O=C(Nc1ccc(C(=O)Nc2ccc(C3=NCCN3)cc2)cc1)Nc1ccc(C2=NCCN2)cc1 | 6.74
42 | CN(C)C(=O)n1cnc(S(=O)(=O)N(C)c2ccc(Cl)cc2)n1 | 6.11
43 | NC(=O)c1ccc(C(=O)Nc2cccc(-c3csc(-c4nc5ccccc5[nH]4)c3)c2)cc1 | 6.46
44 | c1ccc(COc2ccc(C3CCCCC3)cc2)nc1 | 6.11
45 | OCCNc1nc(Nc2ccccc2)nc2ccccc12 | 6.89
46 | O=[N+]([O-])c1cccc(NC(=S)N2CCCN(Cc3ccc(F)cc3F)CC2)c1 | 6.08
47 | Cc1cc(NN=Cc2ccc(Cl)cc2)c2cc(F)ccc2n1 | 6.08
48 | O=C(Nc1cccc(CN2CCCN(Cc3ccsc3)CC2)c1)c1ccc(Cl)c(Cl)c1 | 6.06

Row | SMILES | pIC50
49 | O=C(N[C@H]1CCN(Cc2ccc(OC3CCN(Cc4ccccc4)CC3)c(Br)c2)C1)c1ccc(Cl)c(Cl)c1 | 6.11
50 | Cc1cccc(CN2CCN(c3ncc(C(=O)NC4CC4)cc3Cl)CC2)c1 | 5.88
51 | CN1CCC(NCc2cccc(-c3ccc(S(=O)(=O)NCCc4ccccn4)cc3)c2)CC1 | 6.08
52 | N#Cc1cccc(CNC(=O)c2cccc(Nc3ccnc4ccc(F)cc34)c2)c1 | 6.00
53 | COc1ccccc1CCN1CCC(CN(C)Cc2ccc(O)c(Cl)c2)CC1 | 6.48
54 | COc1ccc(CON2C(N)=NC(N)=NC2(C)C)cc1OC | 8.00
55 | COc1ccc(Cc2c(Cl)nc3nc(N)nc(N)c3c2C)c(OC)c1OC | 6.14
56 | O=C(/C=C/c1ccc(Cl)c(Cl)c1)NCCCCCN1CCCN(C(=O)Nc2cccc(F)c2)CC1 | 6.12
57 | CCc1ccc(C2CCN(CCCCNC(=O)c3ccc(-c4ccc(C(F)(F)F)cc4)cc3)CC2)c(OCCO)c1 | 6.39
58 | COc1ccc(OC)c([C@H](O)[C@@H](C)NCc2cc(Cl)ccc2O)c1 | 6.42
59 | Cc1ccc(Nc2nc(C)cc(NC3CCN(C)CC3)n2)cc1 | 6.30
60 | O=C(NC1CCC(CN2CCC(c3c[nH]c4ccccc34)CC2)CC1)c1[nH]c(=O)[nH]c(=O)c1F (configuration not stated) | 6.10
61 | O=C(Nc1cccc(-c2csc(-c3ccccc3)n2)c1)c1cccs1 | 6.10
62 | CCn1c(-c2nonc2N)nc2c(-c3cccc(NC(=O)Nc4ccc(Cl)cc4)c3)ncc(OCCCN)c21 | 6.08
63 | O=C(OCc1ccccc1)N1CCc2c([nH]c3ccccc23)C1CCC(F)(F)F (configuration not stated) | 6.38
64 | O=C(CCNc1ccnc(NCCc2ccccc2)n1)Nc1ccccc1 | 6.08
65 | O=C(/C=C/c1ccsc1)N1CCC(CCN2CCC(c3c[nH]c4ccccc34)CC2)CC1 | 6.04
66 | O=[N+]([O-])c1ccc(Oc2ccccc2CNCC2CCN(CC3CCCCC3)CC2)cc1 | 6.05
67 | S=C(NCCc1ccc(Cl)cc1)N1CCC(CN2CCC(c3c[nH]c4ccccc34)CC2)CC1 | 6.00
68 | Cc1ccccc1Nc1nc(Nc2ccccc2)c2ccccc2n1 | 6.00
69 | Cc1cccc2[nH]c(-c3ccc(-c4cccc(CNC(C)C)c4)s3)nc12 | 6.64
70 | CCCCCN1CCC(NS(=O)(=O)c2ccc(C(=O)Nc3cccc(C(F)(F)F)c3)cc2)C1 (configuration not stated) | 6.00
71 | OC(CNCc1ccccc1OCc1ccccc1)c1cccc(Br)c1 (configuration not stated) | 6.19
72 | CC[C@H]1CN2CC[C@H]1C[C@H]2[C@H](O)c1cc(-c2ccccc2F)nc2ccc(OC)cc12 | 7.10
